Data as given in US11976056B2, “Substituted alkoxypyridinyl indolsulfonamides” (UCB Pharma GmbH, priority 2018, dated 2024).

molecular target: T1, GPR17 (Homo sapiens, UniProt Q13304); assay: cAMP accumulation functional assay (HTRF, Schild analysis vs MDL29,951); type: cell-based; parameters: host or cells: Flp-In T-REx CHO; conditions: CHO hGPR17, Schild analysis against MDL29,951, activity range; read-out: cAMP assay pA2 (converted)
Protocol: Flp-In T-REx CHO cells stably expressing human GPR17 receptor (CHO hGPR17) from Evi Kostenis' lab (Bonn University, Germany) were cultured at 37° C. in a humidified atmosphere of 5% CO2. Cells were grown in DMEM with Nutrient Mixture F-12 supplemented with hygromycin B (500 μg/ml) and blasticidin (30 μg/ml). Expression from the Flp-In locus was induced by treatment with doxycycline (1 μg/ml) for 16-20 h prior assays.
GPR17 activation can also recruit Gi-type G-protein signaling, resulting in a decrease of intracellular cyclic adenosine monophosphate (cAMP). Intracellular cAMP changes can be measured using the HTRF cAMP dynamic assay kit from CisBio (Codolet, France). Using homogenous time-resolved fluorescence technology (HTRF), the assay is based on competition between native cAMP produced by cells and cAMP labelled with the dye d2. The tracer binding was determined by an anti-cAMP antibody labeled with cryptate.
CHO hGPR17 were detached with PBS containing EDTA and dispatched in black 384-well plates with 5,000 cells per well. Cells were first incubated for 30 minutes at room temperature in HBSS Hepes (pH 7.4) containing vehicle or varying concentrations of test GPR17 antagonist/inverse agonist compounds. Then, a dose response curve of MDL29,951 GPR17 agonist (typically from 10^−5 M to 10^−10 m) was added on vehicle and on each test GPR17 antagonist/inverse agonist compound concentration in a final volume of 20 μL HBSS Hepes buffer (pH 7.4) containing 1% DMSO, 5 μM forskolin and 0.1 mM IBMX. After 60 minutes incubation at room temperature, the reaction is terminated and the cells lysed by adding the d2 detection reagent and the cryptate reagent in 10 μL lysis buffer each according to manufacturer's instructions. After 60 minutes incubation, changes in cAMP concentrations are measured according to manufacturer's instructions using an Envision plate reader with laser excitation. All incubations were performed in duplicate. Data was analyzed using GraphPad Prism software using the 4-parameter logistic equation to measure MDL29,951 pEC50s in absence and presence of GPR17 antagonist/inverse agonist test compounds. Dose ratio (DR) were plotted against antagonist concentrations and Schild analysis provided estimated affinity pA2 of GPR17 antagonist/inverse agonist test compounds.
Target sequence in this assay (Q13304 whole entry): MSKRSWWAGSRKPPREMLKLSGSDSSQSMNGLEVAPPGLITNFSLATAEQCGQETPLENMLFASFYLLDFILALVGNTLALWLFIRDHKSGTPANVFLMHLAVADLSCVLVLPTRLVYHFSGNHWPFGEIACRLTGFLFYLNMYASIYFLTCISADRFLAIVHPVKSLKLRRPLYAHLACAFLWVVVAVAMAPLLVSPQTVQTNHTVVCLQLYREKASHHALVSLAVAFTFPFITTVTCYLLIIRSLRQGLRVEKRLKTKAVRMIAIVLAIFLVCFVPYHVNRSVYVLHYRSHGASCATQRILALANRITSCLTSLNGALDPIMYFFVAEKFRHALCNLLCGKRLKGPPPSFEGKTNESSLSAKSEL

SMILES	Kb [nM]
O=S(=O)(Nc1ncc(OCC(F)F)cc1F)c1c[nH]c2c(F)c(C(F)F)ccc12 [Example I-19, N-[5-(2,2-difluoroethoxy)-3-fluoropyridin-2-yl]-6-(difluoromethyl)-7-fluoro-1H-indole-3-sulfonamide]	> 31.6
O=S(=O)(Nc1nc(F)c(OCCF)cc1F)c1c[nH]c2c(F)c(Cl)ccc12 [Example I-10, 6-chloro-N-[3,6-difluoro-5-(2-fluoroethoxy)pyridin-2-yl]-7-fluoro-1H-indole-3-sulfonamide]	≤ 3.16
O=S(=O)(Nc1ncc(OCCF)cc1F)c1c[nH]c2c(C(F)F)c(Cl)ccc12 [Example I-7, 6-chloro-7-(difluoromethyl)-N-[3-fluoro-5-(2-fluoroethoxy)pyridin-2-yl]-1H-indole-3-sulfonamide]	3.16 to 31.6
COc1cc(OC(F)F)cnc1NS(=O)(=O)c1c[nH]c2c(C(F)F)c(Cl)ccc12 [Example I-17, 6-chloro-N-[5-(difluoromethoxy)-3-methoxypyridin-2-yl]-7-(difluoromethyl)-1H-indole-3-sulfonamide]	3.16 to 31.6
COc1cc(OC(F)F)cnc1NS(=O)(=O)c1c[nH]c2c(Cl)c(Cl)ccc12 [Example I-16, 6,7-dichloro-N-[5-(difluoromethoxy)-3-methoxypyridin-2-yl]-1H-indole-3-sulfonamide]	≤ 3.16
O=S(=O)(Nc1ncc(OCCF)cc1F)c1c[nH]c2c(F)c(C(F)F)ccc12 [Example I-8, 6-(difluoromethyl)-7-fluoro-N-[3-fluoro-5-(2-fluoroethoxy)pyridin-2-yl]-1H-indole-3-sulfonamide]	> 31.6
COc1nc(NS(=O)(=O)c2c[nH]c3c(F)c(Cl)ccc23)c(F)cc1OCC(F)F [Example I-22, 6-chloro-N-[5-(2,2-difluoroethoxy)-3-fluoro-6-methoxypyridin-2-yl]-7-fluoro-1H-indole-3-sulfonamide]	≤ 3.16
O=S(=O)(Nc1nc(F)c(OCCF)cc1F)c1c[nH]c2c(C3CC3)c(Cl)ccc12 [Example I-12, 6-chloro-7-cyclopropyl-N-[3,6-difluoro-5-(2-fluoroethoxy)pyridin-2-yl]-1H-indole-3-sulfonamide]	3.16 to 31.6
O=S(=O)(Nc1nc(F)c(OCCF)cc1F)c1c[nH]c2c(C(F)F)c(Cl)ccc12 [Example I-3, 6-chloro-N-[3,6-difluoro-5-(2-fluoroethoxy)pyridin-2-yl]-7-(difluoromethyl)-1H-indole-3-sulfonamide]	≤ 3.16
O=S(=O)(Nc1nc(F)c(OCC(F)F)cc1F)c1c[nH]c2c(F)c(Cl)ccc12 [Example I-11, 6-chloro-N-[5-(2,2-difluoroethoxy)-3,6-difluoropyridin-2-yl]-7-fluoro-1H-indole-3-sulfonamide]	≤ 3.16
COc1cc(OCC(F)F)cnc1NS(=O)(=O)c1c[nH]c2c(Cl)c(Cl)ccc12 [Example I-21, 6,7-dichloro-N-[5-(2,2-difluoroethoxy)-3-methoxypyridin-2-yl]-1H-indole-3-sulfonamide]	3.16 to 31.6
COc1nc(NS(=O)(=O)c2c[nH]c3c(F)c(Cl)ccc23)c(F)cc1OCCOC(F)F [Example I-23, 6-chloro-N-[5-[2-(difluoromethoxy)ethoxy]-3-fluoro-6-methoxypyridin-2-yl]-7-fluoro-1H-indole-3-sulfonamide]	≤ 3.16
O=S(=O)(Nc1nc(F)c(OCCF)cc1F)c1c[nH]c2c(Cl)c(Cl)ccc12 [Example I-1, 6,7-dichloro-N-[3,6-difluoro-5-(2-fluoroethoxy)pyridin-2-yl]-1H-indole-3-sulfonamide]	≤ 3.16
COc1nc(NS(=O)(=O)c2c[nH]c3c(Cl)c(C(F)F)ccc23)c(F)cc1OCC(F)F [Example I-20, 7-chloro-N-[5-(2,2-difluoroethoxy)-3-fluoro-6-methoxypyridin-2-yl]-6-(difluoromethyl)-1H-indole-3-sulfonamide]	≤ 3.16
O=S(=O)(Nc1ncc(OCC(F)F)cc1F)c1c[nH]c2c(C(F)F)c(Cl)ccc12 [Example I-14, 6-chloro-N-[5-(2,2-difluoroethoxy)-3-fluoropyridin-2-yl]-7-(difluoromethyl)-1H-indole-3-sulfonamide]	3.16 to 31.6
COc1nc(NS(=O)(=O)c2c[nH]c3c(Cl)c(Cl)ccc23)c(F)cc1OCC(F)F [Example I-13, 6,7-dichloro-N-[5-(2,2-difluoroethoxy)-3-fluoro-6-methoxypyridin-2-yl]-1H-indole-3-sulfonamide]	≤ 3.16
COc1nc(NS(=O)(=O)c2c[nH]c3c(C(F)F)c(Cl)ccc23)c(F)cc1OCC(F)F [Example I-15, 6-chloro-N-[5-(2,2-difluoroethoxy)-3-fluoro-6-methoxypyridin-2-yl]-7-(difluoromethyl)-1H-indole-3-sulfonamide]	≤ 3.16
O=S(=O)(Nc1ncc(OCC(F)F)cc1F)c1c[nH]c2c(Cl)c(Cl)ccc12 [Example I-6, 6,7-dichloro-N-[5-(2,2-difluoroethoxy)-3-fluoropyridin-2-yl]-1H-indole-3-sulfonamide]	3.16 to 31.6
O=S(=O)(Nc1nc(F)c(OCCF)cc1F)c1c[nH]c2c(OC3CC3)c(Cl)ccc12 [Example I-2, 6-chloro-7-cyclopropyloxy-N-[3,6-difluoro-5-(2-fluoroethoxy)pyridin-2-yl]-1H-indole-3-sulfonamide]	≤ 3.16
O=S(=O)(Nc1nc(F)c(OCCF)cc1F)c1c[nH]c2c(OC(F)(F)F)c(Cl)ccc12 [Example I-18, 6-chloro-N-[3,6-difluoro-5-(2-fluoroethoxy)pyridin-2-yI]-7-(trifluoromethoxy)-1H-indole-3-sulfonamide]	3.16 to 31.6
O=S(=O)(Nc1ncc(OCCF)cc1F)c1c[nH]c2c(Cl)c(Cl)ccc12 [Example I-5, 6,7-dichloro-N-[3-fluoro-5-(2-fluoroethoxy)pyridin-2-yl]-1H-indole-3-sulfonamide]	3.16 to 31.6

system: CYP1A2; assay: CYP 450-1A2 induction assay in cryopreserved human hepatocytes; type: in vitro ADME; conditions: 10 μM test compound, 72 h, compared to vehicle control
Protocol: Cryopreserved human hepatocytes from a single donor are seeded on a 96 well collagen coated plate so that the final seeding density is 0.1×10^6 cells/well (final volume per well 0.1 mL). The cells are then incubated in seeding medium at 37° C., 95% humidity, 5% CO2 to allow the cells to attach. After 4 h, the seeding medium is replaced with 0.1 mL of pre warmed serum free Williams E medium containing 100 IU/mL penicillin, 100 μg/mL streptomycin, 10 μg/mL insulin, 2 mM L glutamine and 0.1 μM hydrocortisone.
The next day, cells are dosed with test compound in assay medium (final test compound concentration 10 μM; final DMSO concentration 0.1%). Positive control inducers, omeprazole (50 μM) for CYP1A2, phenobarbital (500 μM) for CYP2B6 and rifampicin (10 μM) for CYP3A4, are incubated alongside the test compound. Negative control wells are included where the test compound is replaced by vehicle solvent (0.1% DMSO in assay medium). Each test compound is dosed in triplicate. The cells are exposed to the solutions for 72 h with fresh solution added every 24 h.
For catalytic activity determination, a solution of the probe substrates, phenacetin (final concentration 25 μM), bupropion (final concentration 100 μM) and midazolam (final concentration 2.5 μM) is prepared in pre warmed assay medium. At the end of the 72 h exposure period, the media is replaced with the cocktail of probe substrates. The hepatocytes are incubated for 30 min. An aliquot is removed at the end of the incubation period and placed into methanol containing internal standard in a 1:2 ratio. The samples are centrifuged at 2500 rpm at 4° C. for 20 min. An aliquot of supernatant is diluted with deionised water and levels of acetaminophen, hydroxybupropion and 1 hydroxymidazolam are quantified using Cyprotex generic LC MS/MS methods.
The hepatocytes are solubilised in 0.1M sodium hydroxide at room temperature and protein content in each well determined using Pierce™ BCA Protein Assay Kit (Thermo Scientific) using bovine serum albumin as a standard.
For catalytic activity determination, the concentration of metabolite formed at each test compound replicate is converted to CYP activity and normalised to protein. The fold change is determined by comparing to the vehicle control wells. The fold change observed at each test compound concentration is expressed as a percentage of the positive control compounds for each P450 isoform.

SMILES	induction of CYP1A2
O=S(=O)(Nc1nc(F)c(OCCF)cc1F)c1c[nH]c2c(C3CC3)c(Cl)ccc12 [Example I-12, 6-chloro-7-cyclopropyl-N-[3,6-difluoro-5-(2-fluoroethoxy)pyridin-2-yl]-1H-indole-3-sulfonamide]	no CYP1A2 induction
O=S(=O)(Nc1nc(F)c(OCCF)cc1F)c1c[nH]c2c(C(F)F)c(Cl)ccc12 [Example I-3, 6-chloro-N-[3,6-difluoro-5-(2-fluoroethoxy)pyridin-2-yl]-7-(difluoromethyl)-1H-indole-3-sulfonamide]	no CYP1A2 induction
O=S(=O)(Nc1nc(F)c(OCCF)cc1F)c1c[nH]c2c(Cl)c(Cl)ccc12 [Example I-1, 6,7-dichloro-N-[3,6-difluoro-5-(2-fluoroethoxy)pyridin-2-yl]-1H-indole-3-sulfonamide]	no CYP1A2 induction
O=S(=O)(Nc1nc(F)c(OCCF)cc1F)c1c[nH]c2c(OC3CC3)c(Cl)ccc12 [Example I-2, 6-chloro-7-cyclopropyloxy-N-[3,6-difluoro-5-(2-fluoroethoxy)pyridin-2-yl]-1H-indole-3-sulfonamide]	no CYP1A2 induction
O=S(=O)(Nc1nc(F)c(OCCF)cc1F)c1c[nH]c2cc(Cl)ccc12 [Comparative Example 1, 6-chloro-N-[3,6-difluoro-5-(2-fluoroethoxy)pyridin-2-yl]-1H-indole-3-sulfonamide, reference compound]	16 fold

molecular target: T1, GPR17; assay: not given; conditions: activating ligands for GPR17; cited from earlier work
Target sequence in this assay (Q13304 whole entry, species assumed): as the sequence (Q13304 whole entry) above

SMILES	amounts needed in the assays
NCc1[nH]cc(CCC(=O)O)c1CC(=O)O [PBG, porphobilinogen]	mM range
NCC(=O)CCC(=O)O [Example 5-ALA, 5 amino levulinic acid]	three digit micromolar range
